The target in this assay is human TRPM8 (Homo sapiens (Human), UniProt Q7Z2W7). In words: TRPM8 inhibition assay (menthol-induced calcium influx, FDSS). The note with it: HEK293 cells stably expressing human TRPM8; 100 μmol/L menthol; Fura-2AM calcium signal; read-out: TRPM8 Blocking Test (IC50/nmol/L). Format: cell-based. On the procedure: The functional activity of a test compound was determined by measuring change in intracellular calcium concentration using a calcium sensitive fluorescent dye. The change in fluorescent signal was measured by the cell imaging technology by Hamamatsu Photonics's Functional Drug Screening System (FDSS).
Chain of human TRPM8 (Q7Z2W7 whole entry): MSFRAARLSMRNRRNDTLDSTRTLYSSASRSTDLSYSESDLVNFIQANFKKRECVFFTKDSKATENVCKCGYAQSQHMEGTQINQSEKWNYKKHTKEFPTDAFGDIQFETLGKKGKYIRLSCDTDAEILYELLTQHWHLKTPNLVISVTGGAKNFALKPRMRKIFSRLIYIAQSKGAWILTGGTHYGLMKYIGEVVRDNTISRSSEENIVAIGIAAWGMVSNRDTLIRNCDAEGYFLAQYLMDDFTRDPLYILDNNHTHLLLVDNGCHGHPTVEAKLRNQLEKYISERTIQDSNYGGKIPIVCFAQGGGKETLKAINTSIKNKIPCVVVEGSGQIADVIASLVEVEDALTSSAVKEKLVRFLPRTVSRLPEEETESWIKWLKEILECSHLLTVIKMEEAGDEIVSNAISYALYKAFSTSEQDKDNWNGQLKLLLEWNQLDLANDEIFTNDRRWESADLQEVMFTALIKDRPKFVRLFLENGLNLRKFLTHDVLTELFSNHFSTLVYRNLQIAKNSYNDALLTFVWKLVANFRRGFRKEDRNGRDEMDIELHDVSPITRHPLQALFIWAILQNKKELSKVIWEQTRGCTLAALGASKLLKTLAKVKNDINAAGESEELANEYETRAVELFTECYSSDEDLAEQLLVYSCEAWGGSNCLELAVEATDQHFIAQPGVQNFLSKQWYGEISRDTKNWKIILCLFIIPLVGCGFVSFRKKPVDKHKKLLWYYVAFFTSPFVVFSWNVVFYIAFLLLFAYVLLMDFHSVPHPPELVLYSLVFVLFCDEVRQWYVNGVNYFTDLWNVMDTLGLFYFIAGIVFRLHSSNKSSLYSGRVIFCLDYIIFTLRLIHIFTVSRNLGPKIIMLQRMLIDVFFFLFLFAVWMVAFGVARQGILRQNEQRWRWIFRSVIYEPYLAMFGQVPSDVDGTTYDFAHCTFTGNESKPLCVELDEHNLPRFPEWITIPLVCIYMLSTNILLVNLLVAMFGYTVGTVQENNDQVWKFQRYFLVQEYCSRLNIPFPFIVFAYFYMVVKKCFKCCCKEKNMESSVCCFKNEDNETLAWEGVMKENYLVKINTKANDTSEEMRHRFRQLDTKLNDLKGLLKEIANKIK
HEK293 cells stably expressing human TRPM8 were grown in a flask. On assay day, the culture medium was removed from the flask, and cells were washed with phosphate-buffered saline (PBS) and harvested with PBS containing 2 mmol/L of ethylenediaminetetraacetic acid disodium salt (EDTA-2Na). […] Subsequently, suspended 20,000 to 50,000 cells per well were incubated with a test compound (at varying concentrations) in each well at 37° C. for 20 minutes. Change in intracellular calcium concentration evoked by 100 μmol/L of menthol was measured for 2 minutes using FDSS. […] The concentration-response curve was generated using the average of quadruplicate wells for each data point.
On to `Cc1cc(S(=O)(=O)N(Cc2ccc(OC(F)(F)F)cc2)c2nc(C3CC3)c3ccccc3c2C)ccc1C(=O)O` [Example 40, 4-({(1-cyclopropyl-4-methylisoquinolin-3-yl)[4-(trifluoromethoxy)benzyl]amino}sulfonyl)-2-methylbenzoic acid], for which the IC50 was determined as 6.5 nmol/L.

For the compound `CNc1cc(S(=O)(=O)N(Cc2ccc(OC(F)(F)F)cc2)c2ncc3ccccc3c2C2CC2)ccc1C(=O)O` [Example 41, 4-({(4-cyclopropylisoquinolin-3-yl)[4-(trifluoromethoxy)benzyl]amino}sulfonyl)-2-(methylamino)benzoic acid], the IC50 came to 1.1 nmol/L.

`Cc1cc(S(=O)(=O)N(Cc2ccc(OC(F)(F)F)cc2)c2ncc3ccccc3c2C2CC2)cc(F)c1C(=O)O` [Example 42]: the IC50 is 1.5 nmol/L.

Consider `O=C(O)c1ccc(S(=O)(=O)N(Cc2ccc(OC(F)(F)F)cc2)c2ncc3ccccc3c2C2CC2)cc1C1CC1` [Example 43], for which the IC50 was 10.1 nmol/L.

As to `CC(C)c1cc(S(=O)(=O)N(Cc2ccc(OC(F)(F)F)cc2)c2ncc3ccccc3c2C2CC2)ccc1C(=O)O` [Example 44], the IC50 worked out at 5.6 nmol/L.

Turning to `CN(C)c1cc(S(=O)(=O)N(Cc2ccc(OC(F)(F)F)cc2)c2ncc3ccccc3c2C2CC2)ccc1C(=O)O` [Example 45], the IC50 is 2.9 nmol/L.

As to `Cc1cc(S(=O)(=O)N(Cc2ccc(OC(F)(F)F)cc2)c2ncc3ccccc3c2C(F)(F)F)ccc1C(=O)O` [Example 46], the IC50 amounted to 3.3 nmol/L.

With `O=C(O)c1ccc(S(=O)(=O)N(Cc2ccc(OC(F)(F)F)cc2)c2ncc3ccccc3c2C2CC2)cc1Cl` [Example 47], the IC50 was 3.8 nmol/L.

For the compound `O=C(O)c1ccc(S(=O)(=O)N(Cc2ccc(OC(F)(F)F)cc2)c2ncc3ccccc3c2C2CC2)cc1Br` [Example 48], the IC50 came out at 6.3 nmol/L.

Turning to `O=C(O)c1ccc(S(=O)(=O)N(Cc2ccc(OC(F)(F)F)cc2)c2ncc3ccccc3c2C2CC2)cc1C(F)(F)F` [Example 49], the IC50 stood at 18.1 nmol/L.

On to `COc1cc(S(=O)(=O)N(Cc2ccc(OC(F)(F)F)cc2)c2ncc3ccccc3c2C2CC2)ccc1C(=O)O` [Example 50], for which the IC50 amounted to 11.7 nmol/L.

For `Cc1cc(S(=O)(=O)N(Cc2ccc(OC(F)(F)F)cc2)c2ncc3ccccc3c2C2CC2)cc(C)c1C(=O)O` [Example 51], the IC50 came out at 10.9 nmol/L.

As for `O=C(O)c1ccc(S(=O)(=O)N(Cc2ccc(OC(F)(F)F)cc2)c2ncc3ccccc3c2C2CC2)cc1F` [Example 52], the IC50 was 1 nmol/L.

For the compound `CCc1cc(S(=O)(=O)N(Cc2ccc(OC(F)(F)F)cc2)c2ncc3ccccc3c2C(F)(F)F)ccc1C(=O)O` [Example 53], the IC50 worked out at 3 nmol/L.

Take `CCc1cc(S(=O)(=O)N(Cc2ccc(OC(F)(F)F)cc2)c2ncc3ccccc3c2C2CC2)ccc1C(=O)O` [Example 54]: the IC50 was 2.1 nmol/L.

In the case of `O=C(O)c1ccc(S(=O)(=O)N(Cc2ccc(OC(F)(F)F)cc2)c2ncc3ccccc3c2C2CC2)cc1-c1ccccc1` [Example 55], the IC50 was 13.6 nmol/L.

`CC(C)c1cc(S(=O)(=O)N(Cc2ccc(OC(F)(F)F)cc2)c2ncc3ccccc3c2C(F)(F)F)ccc1C(=O)O` [Example 56]: the IC50 came to 6.6 nmol/L.

In the case of `CCCc1cc(S(=O)(=O)N(Cc2ccc(OC(F)(F)F)cc2)c2ncc3ccccc3c2C2CC2)ccc1C(=O)O` [Example 57], the IC50 turned out to be 2.5 nmol/L.

Regarding `O=C(O)c1ccc(S(=O)(=O)N(Cc2ccc(OC(F)(F)F)cc2)c2ncc3ccccc3c2C2CC2)cc1N1CCCC1` [Example 58], the IC50 is 4.6 nmol/L.

Turning to `O=C(O)c1ccc(S(=O)(=O)N(Cc2ccc(OC(F)(F)F)cc2)c2ncc3ccccc3c2C2CC2)cc1N1CCCCC1` [Example 59], the IC50 was determined as 10.3 nmol/L.

In the case of `O=C(O)c1ccc(S(=O)(=O)N(Cc2ccc(OC(F)(F)F)cc2)c2ncc3ccccc3c2C2CC2)cc1N1CCOCC1` [Example 60], the IC50 was 19.6 nmol/L.

Source of the values: patent publication US9487488B2, “Sulfonamide compound” (MITSUBISHI TANABE PHARMA CORPORATION, priority 2012, dated 2016).
